Source: patent publication US20100056483A1, “METHODS AND COMPOSITIONS FOR THE TREATMENT AND PREVENTION OF BONE LOSS” (OHIO UNIVERSITY, priority 2008, published 2010)

How the values were obtained:
[1] = OVX rats; 200 mg/kg/day CaEDTA intraperitoneal; weighed weekly
Procedure: The temperature inside the chambers was 22° C. (±2) with relative humidity from 40 to 60%.
The rats were weighed and euthanized with carbon dioxide.

[2] = broad-spectrum divalent-cation chelator; cited from earlier work

O=C(O)CN(CCN(CC(=O)O)CC(=O)O)CC(=O)O.[Ca] [CaEDTA, Calcium ethylenediaminetetra-acetic acid]
Effect on body weight [1]: no effect on body weight | Affinity for zinc relative to calcium [2]: binds zinc with higher affinity than Calcium
